Assay [1] deals with σ receptors. The assay is described as follows: Isolated organ bioassay, field-stimulated vas deferens: test for agonist activity. To be noted: mean, n=2. On the set-up: species or system guinea pig. The method, then: (§1) Segments of guinea pig vas deferens were suspended in 20-ml organ baths containing an oxygenated (95% O2 and 5% CO2) and pre-warmed (37° C.) physiological salt solution of the following composition (in mM): NaCl 118.0, KCl 4.7, MgSO4 1.2, CaCl2 2.5, KH2PO4 1.2, NaHCO3 25.0 and glucose 11.0 (pH 7.4). Yohimbine (1 μM), (−) sulpiride (1 μM), atropine (1 μM) and naloxone (1 μM) were also present throughout the experiments to block the α2-adrenergic, dopamine D2, muscarinic and opioid receptors, respectively. The tissues were connected to force transducers for isometric tension recordings. They were stretched to a resting tension of 0.5 g, allowed to equilibrate for at least 30 min during which time they were washed repeatedly and the tension readjusted. Thereafter, they were stimulated electrically using a constant current stimulator.
The tissues were exposed to a submaximal concentration of the reference agonist (+) SKF-10047 (100 μM) to verify responsiveness and to obtain a control response. Following washings and recovery of the twitch contraction amplitude, the tissues were exposed to increasing concentrations of substance or the same agonist. The different concentrations were added cumulatively and each was left in contact with the tissues until a stable response was obtained or for a maximum of 15 min. If an agonist-like response (enhancement of twitch contractions) was obtained, the reference antagonist rimcazole (10 μM) was tested against the highest concentration of substance to confirm the involvement of the σ receptors in this response.
(§2) The parameter measured was the maximum change in the twitch contraction amplitude induced by each compound concentration. The results are expressed as a percent variation of the control twitch contraction amplitude (mean values). The effects of substance tested at 1.0 10^−6 M, 3.0 10^−6 M and 1.0 10^−5 M for agonist and antagonist activities at the σ receptors in the guinea pig vas deferens bioassay are summarized in Tables 6-7 where those of the reference compounds are also reported.

Assay [2] deals with T1, sigma 2 receptors (Rattus norvegicus, UniProt Q5U3Y7).
T1 construct: The sigma 2 receptors were isolated from rat cerebral cortex; from tissue; host or cells: rat cerebral cortex
T1 sequence (Q5U3Y7 1-176): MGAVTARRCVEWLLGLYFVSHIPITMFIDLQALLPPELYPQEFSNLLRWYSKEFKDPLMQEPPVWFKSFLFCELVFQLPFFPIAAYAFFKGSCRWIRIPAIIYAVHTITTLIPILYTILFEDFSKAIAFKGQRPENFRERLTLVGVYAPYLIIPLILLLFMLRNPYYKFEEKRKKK
Description: Sigma 2 receptor binding ([3H]DTG + (+)pentazocine). The note with it: [3H]DTG 5 nM + 300 nM (+)pentazocine, rat cerebral cortex, read-out: σ2 percentage inhibition at 10 μM. As for the experimental part: (§3) The sigma 1 receptors were isolated from guinea pig cerebral cortex according to the method described in Bowen et al., 1993.
(§4) Sigma 1 receptor binding was determined by a radioligand method using tritium-labelled (+)pentazocine (2 nM) as substrate (Bowen et al., 1993). Sigma 2 receptor binding was determined by a radioligand method using tritium-labelled DTG (+300 nM (+)pentazocine) (5 nM) as substrate (Bowen et al., 1993). Ligand radioactivity was determined by liquid scintillation counting. For sigma 1 binding evaluation, ligand incubations were carried out for one hundred fifty minutes at 22° C. For sigma 2 binding evaluation, ligand incubations were carried out for one hundred twenty minutes at 22° C. The experiments were conducted in duplicate.
(§5) The specific ligand binding to the sigma receptors was defined as the difference between the total binding and the non specific binding determined in presence of an excess of unlabelled ligand. The results obtained are presented in Table 4 hereinbelow and are expressed as percent of control specific binding and as a percent inhibition of control specific binding obtained in presence of 10 μM of substance.

Assay [3] deals with T2, 5-HT transporter (Homo sapiens, UniProt P31645).
T2 construct: expressed in transfected cells; host or cells: HEK-293
T2 sequence (P31645 whole entry): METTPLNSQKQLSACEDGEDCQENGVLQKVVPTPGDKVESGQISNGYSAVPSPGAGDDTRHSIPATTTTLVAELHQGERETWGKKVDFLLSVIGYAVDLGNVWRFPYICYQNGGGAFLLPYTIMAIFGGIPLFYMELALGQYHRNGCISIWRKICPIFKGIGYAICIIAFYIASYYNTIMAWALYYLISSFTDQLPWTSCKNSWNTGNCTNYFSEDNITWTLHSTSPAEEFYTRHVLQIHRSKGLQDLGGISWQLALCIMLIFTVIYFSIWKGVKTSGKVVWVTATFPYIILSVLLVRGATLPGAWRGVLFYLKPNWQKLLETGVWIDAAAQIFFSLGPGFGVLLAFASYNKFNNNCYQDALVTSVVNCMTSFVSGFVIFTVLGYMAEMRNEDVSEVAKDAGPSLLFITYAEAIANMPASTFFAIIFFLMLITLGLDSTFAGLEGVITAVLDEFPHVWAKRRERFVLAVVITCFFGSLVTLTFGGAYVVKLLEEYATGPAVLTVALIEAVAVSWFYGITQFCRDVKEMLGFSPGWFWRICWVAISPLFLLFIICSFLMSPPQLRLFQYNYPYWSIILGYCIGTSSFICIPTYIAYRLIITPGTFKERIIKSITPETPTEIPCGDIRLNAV
The assay is described as follows: Serotonergic transporter binding ([3H]imipramine). The note with it: [3H]imipramine 2 nM, HEK-293 recombinant, read-out: percentage inhibition at 10 μM of control specific binding to the serotonergic transporter. As for the experimental part:
The serotonergic 5-HT transporter was isolated from human recombinant HEK-293 cells according to the method described by Tatsumi et al. (1997), Pharmacological profile of antidepressants and related compounds at human monoamine transporters, Eur. J. Pharmacol., 340: 249-258.
Serotonergic transporter binding was determined by a radioligand method using tritium-labelled imipramine (2 nM) as substrate (Tatsumi et al., 1999). Ligand radioactivity was determined by liquid scintillation counting. Ligand incubations were carried out for thirty minutes at 22° C. The experiment was conducted in duplicate.
The specific ligand binding to the serotonergic transporter was defined as the difference between the total binding and the non specific binding determined in presence of an excess of unlabelled ligand. The results obtained are presented in Table 3 hereinbelow and are expressed as percent of control specific binding and as a percent inhibition of control specific binding obtained in presence of 10 μM of substance.

Assay [4] has as its system σ (non-selective) receptors. Description: Sigma receptors binding, non-selective ([3H]DTG). The note with it: [3H]DTG 8 nM, rat cerebral cortex. The method, then: The sigma receptors were isolated from rat cerebral cortex according to the method described in Shirayama et al., 1993, p-Chlorophenylalanine-reversible reduction of s binding sites by chronic imipramine treatment in rat brain, Eur. J. Pharmacol., 237: 117-126.
Sigma 1 receptor binding was determined by a radioligand method using tritium-labelled DTG (8 nM) as substrate (Shirayama et al., 1993). Ligand radioactivity was determined by liquid scintillation counting. For sigma binding evaluation, ligand incubations were carried out for one hundred twenty minutes at 22° C. The experiments were conducted in duplicate.
The specific ligand binding to the sigma receptors was defined as the difference between the total binding and the non specific binding determined in presence of an excess of unlabelled ligand. […]

For assay [5], the target named is T3, sigma 1 receptors (Cavia porcellus, UniProt Q60492).
T3 construct: The sigma 1 receptors were isolated from guinea pig cerebral cortex; from tissue; host or cells: guinea pig cerebral cortex
T3 sequence (Q60492 whole entry): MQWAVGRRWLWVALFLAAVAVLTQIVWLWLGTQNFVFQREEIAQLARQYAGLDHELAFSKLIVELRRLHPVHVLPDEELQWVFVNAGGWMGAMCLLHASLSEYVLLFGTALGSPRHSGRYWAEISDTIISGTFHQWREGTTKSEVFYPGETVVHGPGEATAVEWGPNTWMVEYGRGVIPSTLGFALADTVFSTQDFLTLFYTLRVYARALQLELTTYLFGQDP
Description: Sigma 1 receptor binding ([3H](+)pentazocine). The note with it: [3H](+)pentazocine 2 nM, guinea pig cerebral cortex, read-out: σ1 percentage inhibition at 10 μM. As for the experimental part:
as §3, §4, §5

Assay [6] concerns σ receptors. The assay is described as follows: Isolated organ bioassay, field-stimulated vas deferens: test for antagonist activity. On the set-up: species or system guinea pig. The note with it: mean, n=2. The method, then:
as §1
The tissues were exposed to a submaximal concentration of the reference agonist (+) SKF-10047 (100 μM) to obtain a control response. After stabilization of the (+) SKF-10047-induced response, increasing concentrations of substance or the reference antagonist rimcazole were added cumulatively. Each concentration was left in contact with the tissues until a stable response was obtained or for a maximum of 15 min. If it occurred, an inhibition of the (+) SKF-10047-induced increase in twitch contraction amplitude by substance indicated an antagonist activity at the σ receptors.
as §2

For `COc1cc2c(c(OC)c1-c1ccccc1)C(c1cccc(C(N)=O)c1)=NCC(=O)N2C` [Compound 17, 3-(6,8-Dimethoxy-1-methyl-2-oxo-7-phenyl-2,3-dihydro-1H-benzo[e][1,4]diazepin-5-yl)-benzamide], the “Response to the compound, variation of twitch contraction amplitude” value in assay [1] (1.0 10^−5 M) is on record as “+33%”; in assay [1] (1.0 10^−6 M), 0%; in assay [1] (3.0 10^−6 M) it was 0%. Moreover, the “Response to the highest concentration of the compound +Rimcazole (1.0 10^−5 M)” value in assay [1] (highest compound concentration plus rimcazole 1.0 10^−5 M) is −9%. Also, the inhibition at 10 µM turned out to be 93% in assay [2], 98% in assay [3] and 93% in assay [5]. Further, the “σ (non-selective) percentage inhibition at 0.1 μM” value in assay [4] (0.1 μM) was found to be 1%. Further, the “σ (non-selective) percentage inhibition at 1 μM” value in assay [4] (1 μM) came to 57%. Further, the “σ (non-selective) percentage inhibition at 10 μM” value in assay [4] (10 μM) came out at 100%. The figures for the “Response to (+)SKF-10,047 (1.0 10^−4 M) in the presence of the compound” value in assay [6] (compound 1.0 10^−5 M), in assay [6] (compound 1.0 10^−6 M) and in assay [6] (compound 3.0 10^−6 M) were “+169%”, “+139%” and “+139%”, respectively.

These data come from patent US20090215752A1, “Compounds, preparation and therapeutic use thereof” (priority 2005, published 2009).
